We go through seven compounds from patent US8420889B2, “Epicatechin glucosyltransferase” (priority 2008, dated 2013).

This data set concerns recombinant UGT72L1-MBP. The data set can be described thus: UGT72L1 glucosyltransferase assay with potential acceptor substrates and 14C-UDP-Glucose. The method, then:
All assays were performed in triplicate for 1 hour at 30° C. along with boiled enzyme controls.
For studying pH optima, the buffers were 179 mM MES pH 5.0-7.0, and 179 mM Tris-HCl pH 7.0-9.0. Potential acceptor substrates were (−)-epicatechin, (−)-epigallocatechin, (+)-catechin, (+)-gallocatechin, procyanidins B1 and B2, cyanidin, dihydroquercetin, quercetin, kaemferol, apigenin, luteolin, liquiritigenin, daidzein and genistein (Sigma-Aldrich, St Louis, Mo.).

Where [1] appears, read: UDP-glucose as sugar donor, 0.1 mM acceptor substrate, 1 hour at 30° C., pH 7.5.

Consider `Oc1cc(O)c2c(c1)O[C@H](c1cc(O)c(O)c(O)c1)[C@H](O)C2` [(−)-epigallocatechin], for which the “activity for glucosylation, relative to the activity with epicatechin” value under setting [1] is given as 27%.

On to `O=c1c(-c2ccc(O)cc2)coc2cc(O)cc(O)c12` [genistein], for which the “activity for glucosylation (in words)” value under setting [1] was “not active”.

As for `O=c1cc(-c2ccc(O)cc2)oc2cc(O)cc(O)c12` [apigenin], the “activity for glucosylation (in words)” value under setting [1] was “not active”.

By Km is commonly meant the substrate concentration at which the rate is half of its maximum. In the case of `Oc1cc(O)c2c(c1)O[C@H](c1ccc(O)c(O)c1)[C@H](O)C2` [(−)-epicatechin], the Km (recombinant MBP-UGT72L1 fusion protein) was found to be 11.5 µM.

In the case of `O=c1c(O)c(-c2ccc(O)c(O)c2)oc2cc(O)cc(O)c12` [quercetin], the “activity for glucosylation (in words)” value under setting [1] is recorded as “not active”.

As to `O=C1c2c(O)cc(O)cc2O[C@H](c2ccc(O)c(O)c2)[C@H]1O` [dihydroquercetin], the “activity for glucosylation (in words)” value under setting [1] is “not active”.

For `O=c1cc(-c2ccc(O)c(O)c2)oc2cc(O)cc(O)c12` [luteolin], the “activity for glucosylation (in words)” value under setting [1] was “not active”.
